From US20250019385A1, “SPIROCYCLIC ANNULATED 2-AMINO-3-CYANO THIOPHENES AND DERIVATIVES FOR THE TREATMENT OF CANCER” (Boehringer Ingelheim International GmbH, priority 2023, published 2025)

What was measured:
NCI-H727 cells = experiment: NCI-H727 CTG proliferation assay (120 h) (lung cancer, G12V); assay type: cell-based; settings: Homo sapiens
Protocol: (§1) NCI-H727 cells (ATCC No. CRL-5815) are dispensed into black 384-well plates, flat and clear bottom (Greiner, PNr. 781091) at a density of 500 cells per well in 60 μl RPMI ATCC-Formulation (PAN P04-18047)+10% FCS (fetal calf serum, HyClone, SH30084.03). Cells are incubated overnight at 37° C. in a humidified tissue culture incubator at 5% CO2. Compounds (10 mM stock in DMSO) are added at logarithmic dose series using the ECHO acoustic liquid handler system (Beckman Coulter), normalizing for added DMSO and including DMSO controls. All compound treatments are performed in technical duplicates. For the TO time point measurement, untreated cells are analyzed at the time of compound addition. Plates are incubated for 120 h, and cell viability is measured using CellTiter-Glo luminescent cell viability reagent (Promega product code G7570). Viability (stated as percent of control) is defined as relative luminescence units RLU of each well divided by the RLU of cells in DMSO controls. IC50 values are determined from viability measurements by non-linear regression using a four-parameter model.
(§2) IC50 values of representative compounds according to the invention measured with these assays in the indicated cell lines are presented in Table 46.

Ba/F3 cells KRAS G12C = experiment: Ba/F3 proliferation assay (KRAS G12C); assay type: cell-based; settings: Mus musculus, BaF3, 72 h, AlamarBlue viability
How it was run: (§3)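 Ba/F3 cells retrovirally transduced with KRAS G12 mutant, puromycin-selected, grown IL-3-independent; seeded in RPMI-1640 + 10% FCS without IL-3. Logarithmic compound dose series in duplicate, 72 h at 37° C., AlamarBlue fluorescence as % of DMSO control; IC50 from four-parameter non-linear regression.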

Ba/F3 cells KRAS G12V = experiment: Ba/F3 proliferation assay (KRAS G12V); assay type: cell-based; settings: Mus musculus, BaF3, 72 h, AlamarBlue viability
How it was run: as §3

NCI-H358 cells = experiment: NCI-H358 CTG proliferation assay (120 h) (NSCLC, G12C); assay type: cell-based; settings: Homo sapiens
Protocol: as §1, with “NCI-H358” for “NCI-H727”, “CRL-5807)” for “CRL-5815)”, “200” for “500”, “RPMI-1640” for “RPMI”, “(Gibco #A10491)+10%” for “(PAN P04-18047)+10%”, “serum).” for “serum, HyClone, SH30084.03).”
as §2

MKN1 cells = experiment: MKN1 CTG proliferation assay (120 h) (gastric cancer, wt amplified); assay type: cell-based; settings: Homo sapiens, MKN-1
Protocol: as §1, with “MKN1” for “NCI-H727”, “(JCRB0252)” for “(ATCC No. CRL-5815)”, “200” for “500”, “RPMI-1640” for “RPMI”, “(Gibco #A10491)+10%” for “(PAN P04-18047)+10%”
as §2

[1] = Plasma protein binding assay (PPB), equilibrium dialysis; assay type: in vitro ADME; settings: bovine, 10% FCS in PBS, read-out: PPB 10% FCS (% fu)
Protocol: Binding of test compounds to plasma was determined using equilibrium dialysis (ED) and quantitative mass spectrometry interfaced with liquid chromatography (LC-MS). In brief, ED was performed with dialysis devices consisting of two chambers separated by a semipermeable membrane with a molecular weight cut-off of 5-10 kg/mol. One chamber was filled with 10% FCS in PBS containing 1-10 μmol/L test compound and the other chamber was filled with phosphate-buffer saline (PBS) with or without dextran. The dialysis chamber was incubated for 3-5 hours at 37° C. After incubation, protein was precipitated from aliquots of each chamber and the concentration of test compound in the supernatant of the plasma-containing compartment (cserum) and of the buffer-containing compartment (cbuffer) was determined by LC-MS. The fraction of unbound test compound (not bound to plasma) (f) was calculated according to the following equation: […]

Row | Compound | IC50 (NCI-H727 cells) [nM] | IC50 (Ba/F3 cells KRAS G12C) [nM] | IC50 (Ba/F3 cells KRAS G12V) [nM] | IC50 (NCI-H358 cells) [nM] | IC50 (MKN1 cells) [nM] | fraction unbound [1]
1 | CC(C)n1c(=O)n([C@@H]2CCOC2)c2nc(-c3onc4c3CCC[C@@]43CCCc4sc(N)c(C#N)c43)nc(O[C@@H](C)[C@@H]3CCCN3C)c21 [I-32] | 4 | 23 | 13 | 32 | 429 | 0.07
2 | C[C@H](Oc1nc(-c2noc3c2CCC[C@@]32CCCc3sc(N)c(C#N)c32)nc2c1CN(C1COC1)C[C@]21CCOC1)[C@@H]1CCCN1C [II-12] | 3 | 2 | 1 | 4 | 10 | 0.19
3 | C[C@H](Oc1nc(-c2onc3c2CCC[C@@]32CCCc3sc(N)c(C#N)c32)nc2c1n(C)c(=O)n2[C@@H]1CC2CCC1O2)[C@@H]1CCCN1C (stereo partly drawn) [I-18] | 170 | 109 | 69 | 239 | 457 | 0.2
4 | CO[C@H]1CCN(C)[C@@H]1[C@H](C)Oc1nc(-c2noc3c2CCC[C@@]32CCCc3sc(N)c(C#N)c32)nc2c1n(C)c(=O)n2[C@@H]1CCOC1 [II-1] | 2 | 4 | 2 | 4 | 6 | 0.09
5 | C[C@H](Oc1nc(-c2onc3c2CCC[C@@]32CCCc3sc(N)c(C#N)c32)nc2c1n(C)c(=O)n2[C@@H]1CCCOC1)[C@@H]1CCCN1C [I-12] | 3 | 4 | 2 | 6 | 10 | 0.18
6 | C[C@H](Oc1nc(-c2onc3c2CCC[C@@]32CCCc3sc(N)c(C#N)c32)nc2c1[nH]c(=O)n2[C@@H]1CCOC1)[C@@H]1CCCN1C [I-8] | 12 | 41 | 20 | 9 | 41 | 0.4
7 | CO[C@@H]1C[C@@H]([C@H](C)Oc2nc(-c3onc4c3CCC[C@@]43CCCc4sc(N)c(C#N)c43)nc3c2n(C)c(=O)n3[C@@]23COC[C@@H]2C3)N(C)C1 [I-46] | 2 | 2 | 1 | 6 | 9 | 0.32
8 | C[C@H](Oc1nc(-c2onc3c2CCC[C@@]32CCCc3sc(N)c(C#N)c32)nc2c1n(C)c(=O)n2[C@@H]1CCOC1)[C@@H]1[C@@H](F)CCN1C [I-5] | 18 | 31 | 14 | 54 | 113 | 0.03
9 | CCn1c(=O)n([C@@H]2CCOC2)c2nc(-c3onc4c3CCC[C@@]43CCCc4sc(N)c(C#N)c43)nc(O[C@@H](C)[C@@H]3CCCN3C)c21 [I-21] | 4 | 8 | 5 | 3 | 22 | 0.16
10 | C[C@@H]1COC[C@H](n2c(=O)n(C)c3c(O[C@@H](C)[C@@H]4CCCN4C)nc(-c4onc5c4CCC[C@@]54CCCc5sc(N)c(C#N)c54)nc32)C1 [I-44] | 2 | 3 | 2 | 7 | 10 | 0.1
11 | C[C@H](Oc1nc(-c2onc3c2CCC[C@@]32CCCc3sc(N)c(C#N)c32)nc2c1cnn2[C@@H]1CCOC1)[C@@H]1CCCN1C [I-43] | 36 | 32 | 18 | 71 | 155 | 0.11
12 | CCn1c(=O)n([C@@H]2CCCOC2)c2nc(-c3onc4c3CCC[C@@]43CCCc4sc(N)c(C#N)c43)nc(O[C@@H](C)C34CCCN3CCC4)c21 [I-36] | 21 | 31 | 18 | 38 | 239 | 0.06
13 | CO[C@H]1CCN(C)[C@@H]1[C@H](C)Oc1nc(-c2onc3c2CCC[C@@]32CCCc3sc(N)c(C#N)c32)nc2c1n(C)c(=O)n2[C@@H]1CCCOC1 [I-6] | 3 | 4 | 2 | 4 | 90 | 0.17
14 | C[C@H](Oc1nc(-c2onc3c2CCC[C@@]32CCCc3sc(N)c(C#N)c32)nc2c1[nH]c(=O)n2[C@@H]1CCCOC1)[C@@H]1CCCN1C [I-13] | 13 | 38 | 16 | 9 | 11 | 0.18
15 | C[C@H](Oc1nc(-c2onc3c2CCC[C@@]32CCCc3sc(N)c(C#N)c32)nc2c1COC[C@]21CCOC1)[C@@H]1CCCN1C [I-54] | 2 | 2 | 1 | 3 | 7 | 0.34
16 | C[C@H](Oc1nc(-c2noc3c2CCC[C@@]32CCCc3sc(N)c(C#N)c32)nc2c1CCO[C@]21CCOC1)[C@@H]1CCCN1C [II-9b] | 4 | 5 | 2 | 5 | 19 | 0.09
17 | C[C@H](Oc1nc(-c2noc3c2CCC[C@@]32CCCc3sc(N)c(C#N)c32)nc2c1cnn2[C@@H]1CCOC1)[C@@H]1CCCN1C [II-4] | 12 | 12 | 5 | 35 | 63 | 0.1
18 | Cc1nc2c(O[C@@H](C)[C@@H]3CCCN3C)nc(-c3onc4c3CCC[C@@]43CCCc4sc(N)c(C#N)c43)nc2n1[C@@H]1CCOC1 [I-39] | 28 | 24 | 12 | 19 | 29 | 0.24
19 | CO[C@H]1CCN(C)[C@@H]1[C@H](C)Oc1nc(-c2noc3c2CCC[C@@]32CCCc3sc(N)c(C#N)c32)nc2c1n(C)c(=O)n2[C@@H]1CCCOC1 [II-3] | 5 | 3 | 2 | 8 | 14 | 0.03
20 | COCCn1c(=O)n([C@@H]2CCOC2)c2nc(-c3onc4c3CCC[C@@]43CCCc4sc(N)c(C#N)c43)nc(O[C@@H](C)[C@@H]3CCCN3C)c21 [I-1] | 10 | 15 | 8 | 9 | 300 | 0.34
21 | C[C@H](Oc1nc(-c2onc3c2CCC[C@@]32CCCc3sc(N)c(C#N)c32)nc2c1n(C)c(=O)n2C1CCOCC1)[C@@H]1CCCN1C [I-10] | 108 | 43 | 16 | 42 | 109 | 0.24
22 | CO[C@@H]1C[C@@H]([C@H](C)Oc2nc(-c3onc4c3CCC[C@@]43CCCc4sc(N)c(C#N)c43)nc3c2CN(C2COC2)C[C@]32CCOC2)N(C)C1 [I-58] | 5 | 4 | 2 | 5 | 21 | 0.24
